In the series the test system is EA.hy926 endothelial cells. Kind of series: Angiogenesis tube formation assay. Type of series: cell-based. As for the experimental part: Expression of PEDF-signaling associated genes from PC-3 cells treated with 50 μM C3, compared to DMSO control and normalized to GAPDH (n=3, mean±SEM). A Holm-Sidak multiple t test was used for statistical analysis (*p<0.05,**O<0.01, ***<0.001). […] Average tube count for 0.1% DMSO, 0.5% DMSO, and 1, 10 and 50 μM treatment with C3 (n=7, mean±SEM). 1 and 10 μM C3 were compared with respective 0.5% DMSO (unpaired two-tailed t test, ****<0.0001). 50 μM C3 was compared with respective 0.1% DMSO (unpaired two-tailed t test p<0.0001).
Wound Healing Assay. PC-3 cells were seeded in 6 well plates at 3×10^5 cells per well in complete media until the cells reached confluency. Three horizontal and three vertical scratches were made in the confluent monolayers using a standard 200 μL pipette tip and cellular debris were removed by washing with 1×DPBS three times. 1×RPMI-1640 supplemented with C3 or DMSO was added and cells were incubated for 48 hours as described previously. […] Images were uploaded and analyzed for scratch geometry using the tscratch program (96). First, global thresholding was performed, then individual images were manually inspected for single image threshold adjustment and scratch geometries were quantified. […] The samples were analyzed using the Dionex UltiMate 3000 RSLC Nano System coupled to the Q Exactive™ HF Hybrid Quadrupole-Orbitrap MS (Thermo Scientific). […]

Drawing on patent publication US11022604B2, “Dock derived compound against laminin receptor (37 LR) and uses thereof” (Purdue Research Foundation, priority 2017, dated 2021), this text covers calcein uptake for 1 compound.

As for `O=C(c1cc(F)cc2c1OCOC2)N1CCN(C2c3ccccc3-c3ccccc32)CC1` [Compound C3, [4-(9h-fluoren-9-yl)piperazino](6-fluoro-4h-1,3-benzodioxin-8-yl)methanone], the calcein uptake result is given as “did not alter calcein uptake”.
